US10750729B2, “Pig for atrioventricular block model, monkey for atrioventricular block model, guinea pig for atrioventricular block model, and use thereof” (Toho University, priority 2012, dated 2020)

System: Guinea pigs (Hartley)
Assay: Test Example 3-1: electrocardiogram and aortic pressure of halothane-anesthetized guinea pigs (FTY720)
Format: in vivo
Settings: guinea pig
Description: Guinea pigs (Hartley, body weight: 420 g to 650 g, male, obtained from Japan SLC, Inc.) were each anesthetized by intraperitoneally administering thereto sodium thiopental (product of Mitsubishi Tanabe Pharma Corporation) at 50 mg/kg. Next, a tracheal cannula was inserted into each of the guinea pigs. While their body temperature was being maintained at 37° C. with a warming pad, the guinea pigs were allowed to inhale 100% by volume oxygen and 1% by volume vaporized halothane (product of Takeda Pharmaceutical Company Limited.) using an artificial respirator for experimental animals (SN-480-7; product of shimano Co., Ltd.). Here, the artificial respirator for experimental animals was set to a tidal volume of 10 mL/kg and a respiration rate of 60 strokes/min. Next, a cannula for drug administration was inserted to their left femoral vein. In addition, a heparinized catheter for monitoring the blood pressure was inserted to the aorta through the left femoral […]. Then, ECG standard limb II leads was continuously recorded.
Each of the guinea pigs (n=12) of Example 3 was recorded for an electrocardiogram before administration of a drug or a solvent.
FTY720 (product of Sigma-Aldrich Inc.) was dissolved in physiological saline (product of Otsuka Pharmaceutical Factory, Inc.) so as to have a concentration of 0.03 mg/mL.
(§1) After the evaluation of base control, the cannula for drug administration was inserted, and the above-prepared FTY720 solution was intravenously administered to each of the guinea pigs (n=4) of Example 3 for 10 min at a dose of 0.01 mg/kg. These guinea pigs were evaluated for parameters by the following evaluation methods at 5 min, 10 min, 15 min, 20 min, 30 min, 45 min or 60 min after the administration of the FTY720 solution.
FTY720 (product of Sigma-Aldrich Inc.) was dissolved in physiological saline (product of Otsuka Pharmaceutical Factory, Inc.) so as to have a concentration of 0.3 mg/mL.
as §1, with “0.1” for “0.01”
The aortic pressure and the electrocardiogram were monitored using a polygraph system (RM-6000, product of NIHON KOHDEN Co. Ltd.) and analyzed with a full-automated analysis system in real time (WinVAS ver. 3, 1.1R03; product of Physio-Tech Co., Ltd.).
Parameters of the electrocardiogram were measured three times, and the obtained values were averaged. Atrial rate was calculated from PP interval of the electrocardiogram. Ventricular rate was calculated from RR interval of the electrocardiogram.
The measurements in FIGS. 4A to 4E are expressed as mean±SE (n=4). The difference between the parameters was evaluated with one-way repeated measures analysis of variance (ANOVA). It was considered that p<0.05 is statistically significant. In FIG. 4A to 4C and FIG. 4E, “white circle,” “white square” and “white triangle” each mean absence of a significant difference relative to the value of the evaluation of base control (C), and “black circle” and “black square” each mean presence of a significant difference relative to the value of the evaluation of base control (C).
Also, in FIG. 4D, “white circle” means absence of development of atrioventricular block or presence of development of first-degree atrioventricular block, “white square” means presence of development of second-degree atrioventricular block (Wenckebach type), “white triangle” means presence of development of advanced atrioventricular block, “x-mark” means presence of development of third-degree atrioventricular block (complete atrioventricular block), and #1 to 4 refer to each individual.

[1] = FTY720 0.01 and 0.1 mg/kg/10 min i.v., for 60 min from start
[2] = high-dose 0.1 mg/kg/10 min i.v., n=4

change in atrial rate [1]: no significant change
change in QRS width (high-dose 0.1 mg/kg/10 min i.v.): no significant change
change in PR interval (high-dose 0.1 mg/kg/10 min i.v., before development of atrioventricular block): prolonged
change in ventricular rate (high-dose 0.1 mg/kg/10 min i.v., from 20 min to 60 min): significant decrease
individuals that developed Wenckebach-type atrioventricular block [2]: one individual
change in ventricular rate (low-dose 0.01 mg/kg/10 min i.v., for 60 min from start): no significant change
Structure (SMILES): CCCCCCCCc1ccc(CCC(N)(CO)CO)cc1 [FTY720, Fingolimod]
change in blood pressure (MBP) [1]: no significant change
correspondence of P wave and R wave in the electrocardiogram (high-dose 0.1 mg/kg/10 min i.v., 45 min after start): the atrium and the ventricle are contracted independently of each other at their own individual rhythms
change in QT interval (high-dose 0.1 mg/kg/10 min i.v., from 45 min to 60 min): prolonged
individuals that developed complete atrioventricular block [2]: three individuals out of the four individuals
change in any electrophysiological parameters (PR interval, QRS width, QT interval) (low-dose 0.01 mg/kg/10 min i.v., at 60 min from start): no significant change
